Measured values taken from patent US20250320202A1, “PRMT5 INHIBITOR, PREPARATION METHOD THEREFOR, AND PHARMACEUTICAL USE THEREOF” (Abbisko Therapeutics Co., Ltd., priority 2022, published 2025).

Columns and labels:
[1] = system: HCT116 MTAP wild-type cells; test: Human colon cancer HCT116 cell proliferation inhibition test (CellTiter-Glo, 6 days), MTAP wild-type cells; format: cell-based; details: HCT-116, 144 h
Protocol: (§1) 1. HCT116 MTAP knockout and MTAP wild-type cells were plated in 96-well flat bottom plates, and cultured overnight with McCoy's 5A medium containing 10% fetal bovine serum+1% penicillin-streptomycin at 37° C. and 5% CO2.
(§2) 2. On the next day, the compound was dissolved with DMSO, diluted with DMSO and medium successively and transferred to the cell plate. The final concentration of the compound was 10 μM, the compound was diluted 4 times, with 9 concentration gradients, and DMSO control was added.
(§3) 3. Cells that have not been treated with the compound were removed. CellTiter-Glo Luminescent Cell Viability Assay (Promega) was used to detect cell viability, the operation was performed with reference to the package insert of the kit, and then the cell plate was placed on EnVision Multilabel Reader to detect the cold light signal.
(§4) 4. Meanwhile, the cell plate treated with the compound was cultured at 37° C. and 5% CO2 for 6 consecutive days.
(§5) 5. Then, CellTiter-Glo was also used to detect cell viability.
(§6) 6. Finally, the four-parameter dose-response curve module of GraphPad Prism v 9.2.0 software was used to plot the dose-response curve and calculate the IC50 for proliferation inhibition (unit: nM).

[2] = system: HCT116 MTAP knockout cells; test: Human colon cancer HCT116 cell proliferation inhibition test (CellTiter-Glo, 6 days), MTAP knockout cells; format: cell-based; details: HCT-116, 144 h
Protocol: as §1, §2, §3, §4, §5, §6

SMILES | IC50 [1] [nM] | IC50 [2] [nM]
Cn1cc(N(C(=O)c2cc3c(cc2F)nc(N)c2cnn(C)c23)[C@@H]2COc3nc(C(F)(F)F)ccc32)cn1 [Example 2, (S)-4-amino-7-fluoro-1-methyl-N-(1-methyl-1H-pyrazol-4-yl)-N-(6-(trifluoromethyl)-2,3-dihydrofuro[2,3-b]pyridin-3-yl)-1H-pyrazolo[4,3-c]quinolin-8-carboxamide] | 30 | 1
Nc1nc2ccc(C(=O)N(CC3CC3)C3COc4cc(C(F)(F)F)ccc43)cc2c2cnccc12 (centres unmarked) [Example 109, 5-amino-N-(cyclopropylmethyl)-N-(6-(trifluoromethyl)-2,3-dihydrobenzofuran-3-yl)benzo[c][2,6]naphthyridin-9-carboxamide] | 824 | 15
Cn1cc(N(C(=O)c2ccc3nc(N)c4ccncc4c3c2)C2CCc3cc(C(F)(F)F)ccc32)cn1 (centres unmarked) [Example 132, 5-amino-N-(1-methyl-1H-pyrazol-4-yl)-N-(5-(trifluoromethyl)-2,3-dihydro-1H-inden-1-yl)benzo[c][2,6]naphthyridin-9-carboxamide] | 1950 | 44
Cn1cc(N(C(=O)c2ccc3nc(N)c4ccncc4c3c2)C2COc3cc(C(F)(F)F)ccc32)cn1 (centres unmarked) [Example 133, 5-amino-N-(1-methyl-1H-pyrazol-4-yl)-N-(6-(trifluoromethyl)-2,3-dihydrobenzofuran-3-yl)benzo[c][2,6]naphthyridin-9-carboxamide] | 708 | 8
Cn1cc(N(C(=O)c2ccc3nc(N)c4c(cnn4C)c3c2)C2COc3cc(C(F)(F)F)ccc32)cn1 (centres unmarked) [Example 165, 4-amino-3-methyl-N-(1-methyl-1H-pyrazol-4-yl)-N-(6-(trifluoromethyl)-2,3-dihydrobenzofuran-3-yl)-3H-pyrazolo[3,4-c]quinolin-8-carboxamide] | 2510 | 35
Cn1ncc2c(N)nc3cc(O)c(C(=O)N(c4nccs4)[C@@H]4CCc5cc(C(F)(F)F)ccc54)cc3c21 [Example 184, (R)-4-amino-7-hydroxy-1-methyl-N-(thiazol-2-yl)-N-(5-(trifluoromethyl)-2,3-dihydro-1H-inden-1-yl)-1H-pyrazolo[4,3-c]quinolin-8-carboxamide] | > 10000 | > 10000
Cn1cc(N(C(=O)c2ccc3nc(N)c4c(cnn4C)c3c2)[C@@H]2COc3cc(C(F)(F)F)ccc32)cn1 [Example 187, (S)-4-amino-3-methyl-N-(1-methyl-1H-pyrazol-4-yl)-N-(6-(trifluoromethyl)-2,3-dihydrobenzofuran-3-yl)-3H-pyrazolo[3,4-c]quinolin-8-carboxamide] | 2440 | 50
Nc1nc2ccc(C(=O)N(CC3CC3)[C@H]3COc4cc(C(F)(F)F)ccc43)cc2c2cnccc12 [Example 193, (R)-5-amino-N-(cyclopropylmethyl)-N-(6-(trifluoromethyl)-2,3-dihydrobenzofuran-3-yl)benzo[c][2,6]naphthyridin-9-carboxamide] | 9090 | 452
Nc1nc2ccc(C(=O)N(CC3CC3)[C@@H]3COc4nc(C(F)(F)F)ccc43)cc2c2cnccc12 [Example 195, (S)-5-amino-N-(cyclopropylmethyl)-N-(6-(trifluoromethyl)-2,3-dihydrofuro[2,3-b]pyridin-3-yl)benzo[c][2,6]naphthyridin-9-carboxamide] | 423 | 8.6
Cn1ccc(N(C(=O)c2cc3c(cc2F)nc(N)c2cnn(C)c23)[C@@H]2CCc3cc(C(F)(F)F)ccc32)n1 [Example 197, (R)-4-amino-7-fluoro-1-methyl-N-(1-methyl-1H-pyrazol-3-yl)-N-(5-(trifluoromethyl)-2,3-dihydro-1H-inden-1-yl)-1H-pyrazolo[4,3-c]quinolin-8-carboxamide] | 264 | 0.9
C[C@H]1OCc2c1c(N)nc1cc(F)c(C(=O)N(c3cnn(C)c3)[C@@H]3COc4cc(C(F)(F)F)ccc43)cc21 [Example 202, (R)-4-amino-7-fluoro-3-methyl-N-(1-methyl-1H-pyrazol-4-yl)-N-((S)-6-(trifluoromethyl)-2,3-dihydrobenzofuran-3-yl)-1,3-dihydrofuro[3,4-c]quinolin-8-carboxamide] | 36 | 2
Cn1cc(N(C(=O)c2cc3c(cc2F)nc(N)c2cnn(C)c23)[C@@H]2COc3cc(C(F)(F)F)ccc32)cn1 [Example 205, (S)-4-amino-7-fluoro-1-methyl-N-(1-methyl-1H-pyrazol-4-yl)-N-(6-(trifluoromethyl)-2,3-dihydrobenzofuran-3-yl)-1H-pyrazolo[4,3-c]quinolin-8-carboxamide] | 64 | 0.8
Cn1cc(N(C(=O)c2cc3c(cc2F)nc(N)c2cnn(C)c23)[C@H]2COc3cc(C(F)(F)F)ccc32)cn1 [Example 206, (R)-4-amino-7-fluoro-1-methyl-N-(1-methyl-1H-pyrazol-4-yl)-N-(6-(trifluoromethyl)-2,3-dihydrobenzofuran-3-yl)-1H-pyrazolo[4,3-c]quinolin-8-carboxamide] | 8470 | 82

More lines, in order of falling IC50 [2], values ahead:

IC50 [1] [nM] | IC50 [2] [nM] | SMILES
> 10000 | 2640 | Cn1cc(N(C(=O)c2ccc3nc(N)c4c(cnn4C)c3c2)[C@H]2COc3cc(C(F)(F)F)ccc32)cn1 [Example 188, (R)-4-amino-3-methyl-N-(1-methyl-1H-pyrazol-4-yl)-N-(6-(trifluoromethyl)-2,3-dihydrobenzofuran-3-yl)-3H-pyrazolo[3,4-c]quinolin-8-carboxamide]
 | 640 | C[C@@H](c1ncccn1)N(C(=O)c1cc2c3c(c(N)nc2cc1F)COC3)[C@@H]1CCc2cc(C(F)(F)F)ccc21 [Example 224, 4-amino-7-fluoro-N-((S)-1-(pyrimidin-2-yl)ethyl)-N-((R)-5-(trifluoromethyl)-2,3-dihydro-1H-inden-1-yl)-1,3-dihydrofuro[3,4-c]quinolin-8-carboxamide]
> 10000 | 506 | Cn1ncc2c(N)nc3cc(F)c(C(=O)N(CC(F)(F)F)[C@H]4COc5cc(C(F)(F)F)ccc54)cc3c21 [Example 186, (R)-4-amino-7-fluoro-1-methyl-N-(2,2,2-trifluoroethyl)-N-(6-(trifluoromethyl)-2,3-dihydrobenzofuran-3-yl)-1H-pyrazolo[4,3-c]quinolin-8-carboxamide]
1420 | 36 | Nc1nc2ccc(C(=O)N(CC3CC3)C3CCc4cc(C(F)(F)F)ccc43)cc2c2cnccc12 (centres unmarked) [Example 108, 5-amino-N-(cyclopropylmethyl)-N-(5-(trifluoromethyl)-2,3-dihydro-1H-inden-1-yl)benzo[c][2,6]naphthyridin-9-carboxamide]
1260 | 28 | Cn1ncc2c(N)nc3cc(F)c(C(=O)N(CC(F)(F)F)[C@@H]4COc5cc(C(F)(F)F)ccc54)cc3c21 [Example 185, (S)-4-amino-7-fluoro-1-methyl-N-(2,2,2-trifluoroethyl)-N-(6-(trifluoromethyl)-2,3-dihydrobenzofuran-3-yl)-1H-pyrazolo[4,3-c]quinolin-8-carboxamide]
335 | 17 | Cn1cc(N(C(=O)c2cc3c4c(c(N)nc3cc2F)COC4)C2CCc3nc(C(F)(F)F)ccc32)cn1 (centres unmarked) [Example 160, 4-amino-7-fluoro-N-(1-methyl-1H-pyrazol-4-yl)-N-(2-(trifluoromethyl)-6,7-dihydro-5H-cyclopenta[b]pyridin-5-yl)-1,3-dihydrofuro[3,4-c]quinolin-8-carboxamide]
104 | 9 | Cn1ncc2c(N)nc3cc(F)c(C(=O)N(c4cnsc4)[C@@H]4CCc5cc(C(F)(F)F)ccc54)cc3c21 [Example 203, (R)-4-amino-7-fluoro-N-(isothiazol-4-yl)-1-methyl-N-(5-(trifluoromethyl)-2,3-dihydro-1H-inden-1-yl)-1H-pyrazolo[4,3-c]quinolin-8-carboxamide]
293 | 6 | Nc1nc2ccc(C(=O)N(c3cnsc3)[C@@H]3CCc4cc(C(F)(F)F)ccc43)cc2c2cnccc12 [Example 204, (R)-5-amino-N-(isothiazol-4-yl)-N-(5-(trifluoromethyl)-2,3-dihydro-1H-inden-1-yl)benzo[c][2,6]naphthyridin-9-carboxamide]
78 | 2 | Cn1cc(N(C(=O)c2cc3c4c(c(N)nc3cc2F)COC4)[C@@H]2COc3cc(C(F)(F)F)ccc32)cn1 [Example 201, (S)-4-amino-7-fluoro-N-(1-methyl-1H-pyrazol-4-yl)-N-(6-(trifluoromethyl)-2,3-dihydrobenzofuran-3-yl)-1,3-dihydrofuro[3,4-c]quinolin-8-carboxamide]
79 | 0.8 | Cn1cc(N(C(=O)c2cc3c(cc2F)nc(N)c2cnn(C)c23)C2COc3cc(C(F)(F)F)ccc32)cn1 (centres unmarked) [Example 21, 4-amino-7-fluoro-1-methyl-N-(1-methyl-1H-pyrazol-4-yl)-N-(6-(trifluoromethyl)-2,3-dihydrobenzofuran-3-yl)-1H-pyrazolo[4,3-c]quinolin-8-carboxamide]
276 | 0.3 | Cn1ccc(N(C(=O)c2cc3c(cc2F)nc(N)c2cnn(C)c23)C2CCc3cc(C(F)(F)F)ccc32)n1 (centres unmarked) [Example 168, 4-amino-7-fluoro-1-methyl-N-(1-methyl-1H-pyrazol-3-yl)-N-(5-(trifluoromethyl)-2,3-dihydro-1H-inden-1-yl)-1H-pyrazolo[4,3-c]quinolin-8-carboxamide]
